Experimental data published in patent US9145415B2, “Nitrogen-containing heterocyclic compound or salt thereof” (FUJIFILM Corporation, priority 2012, dated 2015).
Like-named read-outs stand apart in the source and are kept apart here.

How the values were obtained:
[1] = target: T1, human FLT3 protein (FLT3 (WT)) (Homo sapiens, UniProt P36888); assay: FLT3 inhibition test (FLT3 enzyme inhibition, time-resolved fluorescence of substrate peptide phosphorylation); type: biochemical; settings: read-out: FLT3 (WT) enzyme inhibition activity
T1 construct: human FLT3 protein (intracellular region, 564 to 993 aa); GST; purchased Carna Biosciences; host or cells: baculovirus expression system
T1 sequence (P36888 564-993): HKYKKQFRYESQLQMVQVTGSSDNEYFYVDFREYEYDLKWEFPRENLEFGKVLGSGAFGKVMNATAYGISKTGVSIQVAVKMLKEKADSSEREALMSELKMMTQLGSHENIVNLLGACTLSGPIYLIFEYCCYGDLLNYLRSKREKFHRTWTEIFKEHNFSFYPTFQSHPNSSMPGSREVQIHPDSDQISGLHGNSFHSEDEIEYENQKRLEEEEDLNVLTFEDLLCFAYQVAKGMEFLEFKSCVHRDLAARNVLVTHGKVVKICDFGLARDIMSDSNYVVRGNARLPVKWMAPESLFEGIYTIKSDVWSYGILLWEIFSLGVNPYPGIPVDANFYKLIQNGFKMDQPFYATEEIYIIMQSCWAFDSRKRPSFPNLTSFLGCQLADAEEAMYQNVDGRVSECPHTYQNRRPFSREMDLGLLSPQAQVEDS
Procedure: The FLT3 inhibition test was performed for the compounds of the present invention by the method described below.
A reaction mixture in a volume of 9 μL containing the FLT3 protein and a test compound of a predetermined concentration (1.2 μg of FLT3, 100 mM HEPES, 10 mM MgCl2, 25 mM NaCl, 0.01% BSA, 1 mM DTT, pH 7.5) was left standing at 25° C. for 15 minutes. […] (Toray Industries), and 3 μL (final concentration 50 μM) of ATP (Sigma-Aldrich) were added to the reaction mixture, and the mixture was shaken for 2 minutes, and then further left standing at 25° C. for 30 minutes to allow the enzymatic reaction.

MV4-11 cells = assay: Leukemia cell proliferation inhibition test (ATPlite), MV4-11; type: cell-based; settings: Homo sapiens, read-out: MV4-11 cell proliferation inhibition effect
Procedure: (§1) A leukemia cell proliferation inhibition test was performed for the compounds of the present invention by using the leukemia cell strains MV4-11 (ATCC Number, CRL-9591) and Molm-13 (DSMZ Number, ACC554).
(§2) The leukemia cell proliferation inhibition test was performed by the method described below.
(§3) For the purpose of measuring proliferation inhibition attained with a compound, the total cell count was quantified on the basis of the total cellular ATP concentration using the ATPlite (PerkinElmer) reagent utilizing firefly luciferase. The Molm-13 or MV4-11 cells were added to the RPMI medium containing penicillin and streptomycin (penn/strep) and 10% FBS at a density of 2×10^5 cells/ml, and 50 μL (10,000 cells) of the cell suspension was inoculated to each well of a 96-well plate (Corning).
(§4) A serially diluted solution of a compound or 0.1% DMSO (solvent control) in a volume of 50 μL was added to the cells, and then the cells were cultured for 72 hours under the standard cell proliferation conditions (37° C., 5% CO2) to allow proliferation of the cells. In order to measure the proliferation of the total cells, equal volume of the ATPlite reaction mixture was added to each well in accordance with the instructions attached to ATPlite, and then luminescence count of the well was measured (relative light unit, RLU).
(§5) The RLU signal observed with the DMSO solvent control after 72 hours of the culture was defined as a signal indicating 0% inhibition, and the GI50 value for the proliferation inhibition corresponds to a concentration of a compound that provides 50% inhibition based on the proliferation of the total cells contained in the DMSO solvent control. Each data point was obtained from samples in duplicate. The GI50 values were calculated by the non-linear regression fitting (Fit Model (205)) according to a sigmoid dose-reaction equation using the XLfit software.

Molm-13 cells = assay: Leukemia cell proliferation inhibition test (ATPlite), Molm-13; type: cell-based; settings: Homo sapiens, read-out: MOLM13 cell proliferation inhibition effect
Procedure: as §1, §2, §3, §4, §5

[2] = GST-fused human FLT3 (564 to 993 aa), ATP 50 μM
[3] = MV4-11, 72 h, MV4-11, 72 hours culture, ATPlite, GI50 per method
[4] = MOLM-13, 72 h, Molm-13, 72 hours culture, ATPlite, GI50 per method

SMILES	IC50 [1, 2] [nM]	IC50 (MV4-11 cells; [3]) [nM]	IC50 (Molm-13 cells; [4]) [nM]	IC50 ([1]; FLT3 (WT)) [nM]	IC50 (MV4-11 cells; MV4-11, MV4-11 cell) [nM]	IC50 (Molm-13 cells; MOLM-13, MOLM13 cell) [nM]
CCCNc1nc(Nc2cccc(F)c2)ncc1C(=O)Nc1cccc(NC(=O)[C@H](C)N(C)C(=O)/C=C/CN(C)C)c1 [Compound 6-4, (S,E)-N-(3-(2-(4-(dimethylamino)-N-methyl-2-butenamido)propanamido)phenyl)-2-((3-fluorophenyl)amino)-4-(propylamino)pyrimidine-5-carboxamide]	< 10	< 10	< 10			
CNc1nc(Nc2cccc(F)c2)ncc1C#CCCCNC(=O)[C@@H]1C[C@H](F)CN1C(=O)/C=C/CN(C)C [Compound 7-72, (2S,4S)-1-((E)-4-(Dimethylamino)-2-butenoyl)-4-fluoro-N-(5-(2-((3-fluorophenyl)amino)-4-(methylamino)pyrimidin-5-yl)-4-pentyn-1-yl)pyrrolidine-2-carboxamide]	< 10	< 10	< 10			
CCCNc1nc(Nc2ccc(C(N)=O)cc2)ncc1C(=O)Nc1cccc(NC(=O)[C@@H]2CCCN2C(=O)/C=C/CN(C)C)c1 [Compound 3-30]	< 10	< 10	10 to 100			
CCCNc1nc(Nc2ccnc(OC)c2)ncc1C#CCCCNC(=O)CN(C)C(=O)/C=C/CN(C)C [Compound 9-38, (E)-4-(Dimethylamino)-N-(2-((5-(2-((2-methoxypyridin-4-yl)amino)-4-(propylamino)pyrimidin-5-yl)-4-pentyn-1-yl)amino)-2-oxoethyl)-N-methyl-2-butenamide]	< 10	< 10	< 10			
CCCNc1nc(Nc2ccc(C#N)cc2)ncc1/C=C\CNC(=O)CCCNC(=O)/C=C/CN(C)C [Compound 7-96]	10 to 100	100 to 1000	> 1000			
C=CC(=O)NCC(=O)Nc1cccc(NC(=O)c2cnc(Nc3ccc(C(N)=O)cc3)nc2NCCC)c1 [Compound 3-8]	< 10	10 to 100	10 to 100			
CCCNc1nc(Nc2ccc(OC)c(F)c2)ncc1C#CCCCNC(=O)[C@H](C)N(C)C(=O)/C=C/CN(C)C [Compound 7-20, (S,E)-4-(Dimethylamino)-N-(1-((5-(2-((3-fluoro-4-methoxyphenyl)amino)-4-(propylamino)pyrimidin-5-yl)-4-pentyn-1-yl)amino)-1-oxopropan-2-yl)-N-methyl-2-butenamide]	< 10	< 10	< 10			
C=CC(=O)NCC(=O)N(C)c1cccc(NC(=O)c2cnc(NCCc3ccncc3)nc2NCCC)c1 [Compound 1-5]	10 to 100	10 to 100	10 to 100			
C[C@@H](C(=O)NCCCC#Cc1cnc(Nc2ccnc(F)c2)nc1N1CCOCC1)N(C)C(=O)/C=C/CN(C)C [Compound 9-11]	< 10	< 10	< 10			
CCCNc1nc(Nc2ccnc(OC)c2)ncc1C#CCCCNC(=O)[C@@H]1CCCN1C(=O)/C=C/CN(C)C [Compound 9-35, (S,E)-1-(4-(Dimethylamino)-2-butenoyl)-N-(5-(2-((2-methoxypyridin-4-yl)amino)-4-(propylamino)pyrimidin-5-yl)-4-pentyn-1-yl)pyrrolidine-2-carboxamide]	< 10	< 10	< 10			
CCCN(C)c1nc(Nc2cccc(C#N)c2)ncc1C#CCCCNC(=O)[C@H](C)N(C)C(=O)/C=C/CN(C)C [Compound 9-3]	< 10	< 10	10 to 100			
CCCNc1nc(Nc2ccc(C(N)=O)cc2)ncc1C(=O)Nc1cccc(NC2CCCN(C(=O)/C=C/CN(C)C)C2)c1 (stereo not drawn) [Compound 3-19]	< 10	10 to 100	100 to 1000			
CCCNc1nc(Nc2ccc(C#N)cc2)ncc1C#CCNC(=O)CCNC(=O)/C=C/CN(C)C [Compound 7-90]	< 10	100 to 1000	100 to 1000			

The remaining lines, values ahead:

IC50 [1, 2] [nM]	IC50 (MV4-11 cells; [3]) [nM]	IC50 (Molm-13 cells; [4]) [nM]	IC50 ([1]; FLT3 (WT)) [nM]	IC50 (MV4-11 cells; MV4-11, MV4-11 cell) [nM]	IC50 (Molm-13 cells; MOLM-13, MOLM13 cell) [nM]	SMILES
< 10	< 10	< 10				C[C@@H](C(=O)NCCCC#Cc1cnc(Nc2ccc(C#N)cc2)nc1N1CCCC(F)(F)C1)N(C)C(=O)/C=C/CN(C)C [Compound 10-44]
			< 10	< 10	< 10	CNc1ncc(C#C[C@@H]2CCC[C@H](NC(=O)[C@H](C)N(C)C(=O)/C=C/CN(C)C)C2)c(Nc2ccc(OC)cc2)n1 [Compound 21-36]
< 10	< 10	< 10				C[C@@H](C(=O)N[C@H]1C[C@@H](C#Cc2cnc(Nc3cccc(C#N)c3)nc2NC2CC2)C1)N(C)C(=O)/C=C/CN(C)C [Compound 13-20, (E)-N—((S)-1-(((1S,3R)-3-((2-((3-Cyanophenyl)amino)-4-(cyclopropylamino)pyrimidin-5-yl)ethynyl)cyclobutyl)amino)-1-oxopropan-2-yl)-4-(dimethylamino)-N-methyl-2-butenamide]
			< 10	< 10	< 10	C[C@@H](C(=O)N[C@H]1CCC[C@@H](C#Cc2cnc(Nc3cccc(C#N)c3)nc2NC2CC2)C1)N(C)C(=O)/C=C/CN(C)C [Compound 21-47]
< 10	< 10	< 10				C[C@@H](C(=O)N[C@H]1C[C@@H](C#Cc2cnc(Nc3ccc(C#N)cc3)nc2NCCCF)C1)N(C)C(=O)/C=C/CN(C)C [Compound 15-14, (E)-N—((S)-1-(((1S,3R)-3-((2-((4-Cyanophenyl)amino)-4-((3-fluoropropyl)amino)pyrimidin-5-yl)ethynyl)cyclobutyl)amino)-1-oxopropan-2-yl)-4-(dimethylamino)-N-methyl-2-butenamide]
< 10	< 10	10 to 100				Cc1ccc(Nc2nc(Nc3cccc(F)c3)ncc2C#CCCCNC(=O)[C@H](C)N(C)C(=O)/C=C/CN(C)C)cc1 [Compound 10-11]
			< 10	< 10	< 10	CCCNc1nc(Nc2ccc(F)cc2)ncc1C#C[C@@H]1CCC[C@H](NC(=O)[C@H](C)N(C)C(=O)/C=C/CN(C)C)C1 [Compound 21-40]
< 10	< 10	< 10				CCCNc1nc(Nc2ccc(C#N)cc2)ncc1C#C[C@H]1C[C@@H](NC(=O)[C@H](C)N(C)C(=O)/C=C/CN(C)C)C1 [Compound 13-9]
< 10	< 10	< 10				COc1nc(Nc2cccc(F)c2)ncc1C#C[C@@H]1CCC[C@H](NC(=O)[C@H](C)N(C)C(=O)/C=C/CN(C)C)C1 [Compound 15-4]
< 10	< 10	< 10				CN(C)C/C=C/C(=O)N(C)CC(=O)NCCCC#Cc1cnc(Nc2ccc(F)cc2)nc1NCCCF [Compound 10-21]
< 10	< 10	< 10				C[C@@H](C(=O)N[C@H]1CCC[C@@H](C#Cc2cnc(Nc3ccnc(F)c3)nc2N2CCOCC2)C1)N(C)C(=O)/C=C/CN(C)C [Compound 14-3]
< 10	< 10	< 10				C[C@@H](C(=O)NCCCC#Cc1cnc(Nc2ccc(C#N)cc2)nc1NC1CC1)N(C)C(=O)/C=C/CN(C)C [Compound 10-25]
< 10	< 10	< 10				C[C@@H](C(=O)N[C@H]1CCC[C@@H](C#Cc2cnc(Nc3cccc(F)c3)nc2NC2CC2)C1)N(C)C(=O)/C=C/CN(C)C [Compound 21-29]
< 10	10 to 100	10 to 100				CCCNc1nc(Nc2ccc(C(F)(F)F)cc2)ncc1C#CCCCNC(=O)[C@H](C)N(C)C(=O)/C=C/CN(C)C [Compound 12-5]
